Drawing on patent US12077503B2, “Substituted cyclic amides and their use as herbicides” (FMC CORPORATION, priority 2015, dated 2024), this text covers pest or weed control for 11 compounds.

What all share (experiment): Test A preemergence
Common to all, as to format: in vivo

For assay [1], the system named is Kochia (Kochia scoparia). The settings on record: Bassia scoparia, pre-emergence, 240 h; for pest or weed control at 125 g/ha: 125 g ai/ha; for pest or weed control at 500 g/ha: 500 g ai/ha. The method, boiled down:
(§1)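 Each rating is a visual injury score from 0 to 100 given about 10 d after treatment, judged against untreated controls kept alongside in the greenhouse. In loam soil–sand blend, seeds got a preemergence directed soil spray, while postemergence plants were 2 to 10 cm tall at spraying.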

The subject of assay [2] is barnyardgrass (Echinochloa crus-galli). The settings on record: Echinochloa crus-galli, pre-emergence, 240 h; for pest or weed control at 125 g/ha: 125 g ai/ha; for pest or weed control at 500 g/ha: 500 g ai/ha. In a few lines: as §1
The subject of assay [3] is pigweed (Amaranthus retroflexus). To be noted: Amaranthus retroflexus, pre-emergence, 240 h; for pest or weed control at 125 g/ha: 125 g ai/ha; for pest or weed control at 500 g/ha: 500 g ai/ha.
For assay [4], the system named is ragweed (common ragweed, Ambrosia elatior). To be noted: Ambrosia artemisiifolia, pre-emergence, 240 h; for pest or weed control at 125 g/ha: 125 g ai/ha; for pest or weed control at 500 g/ha: 500 g ai/ha. The method, boiled down:
as §1

For assay [5], the system named is ryegrass, Italian (Italian ryegrass, Lolium multiflorum). To be noted: Lolium multiflorum, pre-emergence, 240 h; for pest or weed control at 125 g/ha: 125 g ai/ha; for pest or weed control at 500 g/ha: 500 g ai/ha. In a few lines: as §1
The mark [6] stands for this setting: Preemergence, visual injury rating after approximately 10 d, read-out: Kochia plant response rating (0 to 100 scale, 0 is no effect, 100 is complete control).
Setting [7] is: preemergence, visual injury rating about 10 d after treatment, 0 to 100 scale (0 no effect, 100 complete control), read-out: Kochia plant response rating.
[8] abbreviates: Preemergence, visual injury rating after approximately 10 d, read-out: Barnyardgrass plant response rating (0 to 100 scale, 0 is no effect, 100 is complete control).
Setting [9] is: preemergence, visual injury rating about 10 d after treatment, 0 to 100 scale (0 no effect, 100 complete control), read-out: Barnyardgrass plant response rating.
[10] abbreviates: Preemergence, visual injury rating after approximately 10 d, read-out: Pigweed plant response rating (0 to 100 scale, 0 is no effect, 100 is complete control).
[11] abbreviates: preemergence, visual injury rating about 10 d after treatment, 0 to 100 scale (0 no effect, 100 complete control), read-out: Pigweed plant response rating.
Setting [12] is: Preemergence, visual injury rating after approximately 10 d, read-out: Ragweed plant response rating (0 to 100 scale, 0 is no effect, 100 is complete control).
The mark [13] stands for this setting: preemergence, visual injury rating about 10 d after treatment, 0 to 100 scale (0 no effect, 100 complete control), read-out: Ragweed plant response rating.
[14] abbreviates: Preemergence, visual injury rating after approximately 10 d, read-out: Ryegrass, Italian plant response rating (0 to 100 scale, 0 is no effect, 100 is complete control).
[15] abbreviates: preemergence, visual injury rating about 10 d after treatment, 0 to 100 scale (0 no effect, 100 complete control), read-out: Ryegrass, Italian plant response rating.
Where [16] appears, read: preemergence, 0 to 100 scale where 0 is no effect and 100 is complete control, approx. 10 d, read-out: Kochia plant response rating.
[17] abbreviates: preemergence, 0 to 100 scale where 0 is no effect and 100 is complete control, read-out: Kochia plant response rating.
Setting [18] is: preemergence, 0 to 100 scale where 0 is no effect and 100 is complete control, approx. 10 d, read-out: Barnyardgrass plant response rating.
The mark [19] stands for this setting: preemergence, 0 to 100 scale where 0 is no effect and 100 is complete control, approx. 10 d, read-out: Pigweed plant response rating.
[20] abbreviates: preemergence, 0 to 100 scale where 0 is no effect and 100 is complete control, read-out: Pigweed plant response rating.
Where [21] appears, read: preemergence, 0 to 100 scale where 0 is no effect and 100 is complete control, approx. 10 d, read-out: Ragweed plant response rating.
The mark [22] stands for this setting: preemergence, 0 to 100 scale where 0 is no effect and 100 is complete control, read-out: Ragweed plant response rating.
Where [23] appears, read: preemergence, 0 to 100 scale where 0 is no effect and 100 is complete control, approx. 10 d, read-out: Ryegrass, Italian plant response rating.
Where [24] appears, read: preemergence, 0 to 100 scale where 0 is no effect and 100 is complete control, read-out: Ryegrass, Italian plant response rating.
Where [25] appears, read: preemergence, 0 to 100 scale where 0 is no effect and 100 is complete control, read-out: Barnyardgrass plant response rating.

Where two headings read alike, the source gives them in different places.

Turning to `Cc1ccc([C@H]2CN(C)C(=O)[C@@H]2C(=O)Nc2cccc(F)c2F)cc1C` [Compound 1039], the pest or weed control at 125 g/ha stood at 80% in assay [1] (setting [6]); 90% in assay [2] (setting [8]); 20% in assay [3] (setting [10]); 10% in assay [4] (setting [12]); 60% in assay [5] (setting [14]). The pest or weed control at 500 g/ha in assay [1] (setting [7]) stood at 100%; in assay [2] (setting [9]), 100%; in assay [3] (setting [11]) it was 40%; in assay [4] (setting [13]), 90%; in assay [5] (setting [15]) it was 80%.
As to `Cc1cc([C@H]2CNC(=O)[C@@H]2C(=O)Nc2ccc(F)cc2F)ccc1C(F)(F)F` [Compound 1043], the pest or weed control at 125 g/ha in assay [1] (setting [6]) turned out to be 60%; in assay [2] (setting [8]), 80%; in assay [3] (setting [10]) it was 0%; in assay [4] (setting [12]), 0%; in assay [5] (setting [14]) it was 20%. Also, the pest or weed control at 500 g/ha in assay [1] (setting [7]) was found to be 70%; in assay [2] (setting [9]) it was 90%; in assay [3] (setting [11]) it was 20%; in assay [4] (setting [13]), 50%; in assay [5] (setting [15]), 50%.
Consider `CN1C[C@H](c2cscn2)[C@@H](C(=O)Nc2cccc(F)c2F)C1=O` [Compound 1113], for which the pest or weed control at 125 g/ha in assay [1] (setting [16]), in assay [2] (setting [18]), in assay [3] (setting [19]), in assay [4] (setting [21]) and in assay [5] (setting [23]) was 0% in each case. Moreover, the pest or weed control at 500 g/ha in assay [1] (setting [17]), in assay [2] (setting [9]), in assay [3] (setting [20]), in assay [4] (setting [22]) and in assay [5] (setting [24]) was 0% each time.
On to `CN1C[C@H](c2csc3ccccc23)[C@@H](C(=O)Nc2cccc(F)c2F)C1=O` [Compound 1115], for which the pest or weed control at 125 g/ha worked out at 70% in assay [1] (setting [16]); 90% in assay [2] (setting [18]); 0% in assay [3] (setting [19]); 0% in assay [4] (setting [21]); 50% in assay [5] (setting [23]). The pest or weed control at 500 g/ha came out at 70% in assay [1] (setting [17]); 90% in assay [2] (setting [9]); 40% in assay [3] (setting [20]); 20% in assay [4] (setting [22]); 60% in assay [5] (setting [24]).
For the compound `O=C1NC[C@H](c2csc(C(F)F)c2)[C@H]1C(=O)Nc1ccccc1F` [Compound 1118], the pest or weed control at 125 g/ha in assay [1] (setting [16]) is 0%; in assay [2] (setting [18]), 80%; in assay [3] (setting [19]), 0%; in assay [4] (setting [21]) it was 20%; in assay [5] (setting [23]) it was 40%. In addition, the pest or weed control at 500 g/ha in assay [1] (setting [17]) was determined as 70%; in assay [2] (setting [9]), 90%; in assay [3] (setting [20]) it was 0%; in assay [4] (setting [22]), 60%; in assay [5] (setting [24]) it was 50%.
Turning to `O=C1NC[C@H](c2csc(C(F)F)c2)[C@H]1C(=O)Nc1cccc(F)c1F` [Compound 1119], the pest or weed control at 125 g/ha in assay [1] (setting [16]) turned out to be 70%; in assay [2] (setting [18]) it was 90%; in assay [3] (setting [19]), 0%; in assay [4] (setting [21]), 70%; in assay [5] (setting [23]), 20%. The pest or weed control at 500 g/ha in assay [1] (setting [17]) was 80%; in assay [2] (setting [9]) it was 90%; in assay [3] (setting [20]) it was 30%; in assay [4] (setting [22]) it was 70%; in assay [5] (setting [24]), 30%.
With `CN1C[C@H](c2cc(C(F)F)cs2)[C@@H](C(=O)Nc2cccc(F)c2F)C1=O` [Compound 1121], the pest or weed control at 125 g/ha in assay [1] (setting [16]) stood at 80%; in assay [2] (setting [18]), 90%; in assay [3] (setting [19]) it was 0%; in assay [4] (setting [21]), 50%; in assay [5] (setting [23]), 50%. Besides, the pest or weed control at 500 g/ha in assay [1] (setting [17]) came to 100%; in assay [2] (setting [9]), 100%; in assay [3] (setting [20]), 50%; in assay [4] (setting [22]), 100%; in assay [5] (setting [24]), 60%.
For the compound `CCc1cc(CC)cc([C@H]2CNC(=O)[C@@H]2C(=O)Nc2cccc(F)c2F)c1` [Compound 1139], the pest or weed control at 125 g/ha in assay [1] (setting [16]) is 30%; in assay [2] (setting [18]), 90%; in assay [3] (setting [19]), 0%; in assay [4] (setting [21]), 50%; in assay [5] (setting [23]), 30%. Moreover, the pest or weed control at 500 g/ha in assay [1] (setting [17]) is 60%; in assay [2] (setting [25]) it was 90%; in assay [3] (setting [20]) it was 0%; in assay [4] (setting [22]) it was 50%; in assay [5] (setting [24]) it was 70%.
For the compound `Cc1c(F)cccc1NC(=O)[C@H]1C(=O)N(C)C[C@@H]1c1cc(F)cc(F)c1` [Compound 1140], the pest or weed control at 125 g/ha in assay [1] (setting [16]) was found to be 80%; in assay [2] (setting [18]), 90%; in assay [3] (setting [19]), 0%; in assay [4] (setting [21]) it was 30%; in assay [5] (setting [23]) it was 30%. The pest or weed control at 500 g/ha came to 80% in assay [1] (setting [17]); 100% in assay [2] (setting [25]); 40% in assay [3] (setting [20]); 60% in assay [4] (setting [22]); 40% in assay [5] (setting [24]).
For the compound `CCc1cc([C@H]2CNC(=O)[C@@H]2C(=O)Nc2cccc(F)c2F)cs1` [Compound 1155], the pest or weed control at 125 g/ha in assay [1] (setting [16]) turned out to be 60%; in assay [2] (setting [18]), 90%; in assay [3] (setting [19]), 0%; in assay [4] (setting [21]), 40%; in assay [5] (setting [23]), 0%. In addition, the pest or weed control at 500 g/ha in assay [1] (setting [17]) was found to be 90%; in assay [2] (setting [25]), 100%; in assay [3] (setting [20]), 30%; in assay [4] (setting [22]), 80%; in assay [5] (setting [24]) it was 30%.
Take `CCc1cc([C@H]2CN(C)C(=O)[C@@H]2C(=O)Nc2cccc(F)c2F)cs1` [Compound 1157]: the pest or weed control at 125 g/ha in assay [1] (setting [16]) stood at 90%; in assay [2] (setting [18]) it was 90%; in assay [3] (setting [19]) it was 30%; in assay [4] (setting [21]), 0%; in assay [5] (setting [23]), 30%. Besides, the pest or weed control at 500 g/ha turned out to be 90% in assay [1] (setting [17]); 90% in assay [2] (setting [25]); 60% in assay [3] (setting [20]); 80% in assay [4] (setting [22]); 90% in assay [5] (setting [24]).
